Converted amounts (≈) assume the structure as drawn. Like-named read-outs stand apart in the source and are kept apart here.
How the values were obtained:
human sEH = molecular target: T1, human sEH (Homo sapiens, UniProt P34913); assay: Determination of inhibitory potency; assay type: biochemical
T1 sequence (P34913 1-555): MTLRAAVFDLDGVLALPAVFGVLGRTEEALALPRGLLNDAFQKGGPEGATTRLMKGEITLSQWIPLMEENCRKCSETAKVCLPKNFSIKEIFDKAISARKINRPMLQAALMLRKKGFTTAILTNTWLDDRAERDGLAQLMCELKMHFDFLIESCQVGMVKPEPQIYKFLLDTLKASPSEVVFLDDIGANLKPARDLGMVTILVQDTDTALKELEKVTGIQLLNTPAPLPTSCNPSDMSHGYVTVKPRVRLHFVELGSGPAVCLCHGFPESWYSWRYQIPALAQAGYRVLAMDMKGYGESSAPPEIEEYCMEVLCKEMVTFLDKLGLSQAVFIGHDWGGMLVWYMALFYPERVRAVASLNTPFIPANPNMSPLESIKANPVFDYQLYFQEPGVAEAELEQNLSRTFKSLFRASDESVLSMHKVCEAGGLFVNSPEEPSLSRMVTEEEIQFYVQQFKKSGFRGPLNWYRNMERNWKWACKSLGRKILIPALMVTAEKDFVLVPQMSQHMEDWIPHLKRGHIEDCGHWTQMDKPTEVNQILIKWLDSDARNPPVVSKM

[1] = Solubility in sodium phosphate buffer; assay type: physicochemical
[2] = kinetic fluorescent assay, substrate 5 μM, human sEH 1 nM, means of three separate experiments
[3] = sodium phosphate buffer (pH 7.4, 0.1 M) containing 1% of DMSO
[4] = sodium phosphate buffer, pH 7.4, aqueous buffer

| Structure (SMILES) | IC50 (human sEH; [2]) [µM] | Solubility [1, 3] [µM] | IC50 (human sEH) [µM] | Solubility [1, 4] [µM] |
| --- | --- | --- | --- | --- |
| Cn1nc(CNC(=O)NCC23CC4CC(CC(C4)C2)C3)c(Cl)c1Cl [4f, 1-[(Adamantan-1-yl)methyl]-3-[(4,5-dichloro-1-methyl-1H-pyrazol-3-yl)methyl]urea] | – | – | 0.0012 | 120 to 130 (≈ 44.6 to 48.3 µg/mL) |
| O=C(NCc1ccn(CC(F)F)n1)NCC12CC3CC(CC(C3)C1)C2 [4b, 1-[(Adamantan-1-yl)methyl]-3-{[1-(2,2-difluoroethyl)-1H-pyrazol-3-yl]methyl}urea] | – | – | 0.0275 | 270 to 280 (≈ 95.2 to 98.7 µg/mL) |
| O=C(NCc1ccn(C(F)F)n1)NC12CC3CC(CC(C3)C1)C2 [3d, 1-Adamantyl-3-[(1-difluoromethyl-1H-pyrazol-3-yl)methyl]urea] | 0.0088 | 670 to 680 | – | – |
| Cn1nc(CNC(=O)NCC23CC4CC(CC(C4)C2)C3)cc1C(F)(F)F [4e, 1-[(Adamantan-1-yl)methyl]-3-[(1-metyl-5-trifluoromethyl-1H-pyrazol-3-yl)methyl]urea] | 0.0225 | 160 to 170 | – | – |
| O=C(NCc1ccn(C(F)F)n1)NCC12CC3CC(CC(C3)C1)C2 [4d, 1-[(Adamantan-1-yl)methyl]-3-[(1-difluoromethyl-1H-pyrazol-3-yl)methyl]urea] | – | – | 0.015 | 570 to 580 (≈ 193 to 196 µg/mL) |
| O=C(NCc1ccn(CC(F)(F)F)n1)NCC12CC3CC(CC(C3)C1)C2 [4c, 1-[(Adamantan-1-yl)methyl]-3-{[1-(2,2,2-trifluoroethyl)-1H-pyrazol-3-yl]methyl}urea] | – | – | 0.0073 | 740 to 750 (≈ 274 to 278 µg/mL) |
| Cn1nc(CNC(=O)NC23CC4CC(CC(C4)C2)C3)c(Cl)c1Cl [3f, 1-Adamantyl-3-[(4,5-dichloro-1-methyl-1H-pyrazol-3-yl)methyl]urea] | 0.0008 | 250 to 260 | – | – |

Now from value to molecule:

| IC50 (human sEH; [2]) [µM] | Solubility [1, 3] [µM] | IC50 (human sEH) [µM] | Solubility [1, 4] [µM] | Structure (SMILES) |
| --- | --- | --- | --- | --- |
| 0.0102 | 440 to 450 | – | – | O=C(NCc1ccn(CCF)n1)NC12CC3CC(CC(C3)C1)C2 [3a, 1-Adamantyl-3-{[1-(2-fluoroethyl)-1H-pyrazol-3-yl]methyl}urea] |
| 0.0099 | 160 to 170 | – | – | Cn1nc(CNC(=O)NC23CC4CC(CC(C4)C2)C3)cc1C(F)(F)F [3e, 1-Adamantyl-3-[(1-metyl-5-trifluoromethyl-1H-pyrazol-3-yl)methyl]urea] |
| 0.012 | 300 to 310 | – | – | O=C(NCc1ccn(CC(F)F)n1)NC12CC3CC(CC(C3)C1)C2 [3b, 1-Adamantyl-3-{[1-(2,2-difluoroethyl)-1H-pyrazol-3-yl]methyl}urea] |
| 0.0096 | 390 to 400 | – | – | O=C(NCc1ccn(CC(F)(F)F)n1)NC12CC3CC(CC(C3)C1)C2 [3c, 1-Adamantyl-3-{[1-(2,2,2-trifluoroethyl)-1H-pyrazol-3-yl]methyl}urea] |
| – | – | 0.0138 | 650 to 660 (≈ 217 to 221 µg/mL) | O=C(NCc1ccn(CCF)n1)NCC12CC3CC(CC(C3)C1)C2 [4a, 1-[(Adamantan-1-yl)methyl]-3-{[1-(2-fluoroethyl)-1H-pyrazol-3-yl]methyl}urea] |
